# Where two headings read alike, the source gives them in different places.
# What was measured:
# [1] = test system: child who was afflicted with LINCL; test: Exogenous L-carnitine given to the LINCL child for over three years; type: in vivo, human
# Description: (§1) Child had been taking the supplements/vitamins listed in Appendix B for about three years before the start of TML therapy. In addition, they had been taking clonazepam (5-(2-chlorophenyl)-1,3-dihydro7-nitro-2H-1,4-benzodiazepin-2-one) which is sold under the trade name Klonopin by F. Hoffmann-La Roche Ltd. (Basel, Switzerland) for control of constant Myoclonic seizures for about the same time according to the following daily dosage: (a) at waking: ½ of one 0.5 mg tablet, (b) Every four hours after waking, ¼ of one 0.5 mg tablet, (c) At bedtime: ½ of one 0.5 mg tablet. They also took one (1) 25 mg capsule of nitrofurantoin macrocrystals (sold under the name Macrodantin by Procter & Gamble Pharmaceuticals, Cincinnati Ohio) once per day.
# In summary, L-carnitine plays a key and critical role in enhancing fat metabolism. Reports attest to the fact that L-carnitine works by transporting fatty acids to be burned for fuel, increasing both energy supply and lean muscle mass. […] This contrasts with the apparent need in Late Infantile Neuronal Ceroid Lipofuscinosis (LINCL-one form of Batten Disease) of the correct operation of the endogenous production of L-carnitine. […] This also was not observed by the parents of the child who was afflicted with LINCL (discussed later).
# [2] = test system: dogs with Batten Disease (Juvenile Neuronal Ceroid Lipofuscinosis); settings: cited from earlier work
# L-carnitine biosynthesis [3] = settings: rats; increased amount of the intermediate in the bloodstream; cited from earlier work
# [4] = test system: child diagnosed with Late Infantile Neuronal Ceroid Lipofuscinosis (LINCL); test: Physical condition of the patient after 9 weeks of TML therapy (parents' and physicians' observations); type: in vivo, human
# Description: as §1
# (§2) “Baseline” blood work was done after an overnight fast on the morning of Nov. 19, 2003. Child received their usual supplements/vitamins, clonazepam, and macrodantin. TML, as synthesized in Example 1 was given to the patient (5 mg of TML per day for a […], ending Dec. 28, 2003). Between Dec. 28, 2003 and Jan. 24, 2004 we gave an alternating daily dose of 5 mg/day and 10 mg/day. On Jan. 24, 2004 and till the “new” blood work was done on Jan. 29, 2004, the patient received 10 mg/day by usually taking 5 mg of TML with breakfast and 5 mg of TML with dinner. They received 5 mg per dose during the duration of the experiment. In other words, they received TML once per day on days that they received 5 mg, and TML twice per day on days that they received 10 mg of TML. The TML was administered in powder form intermixed with their food.
# Child's General Physical Condition Before the Start of TML Therapy (Based on Parents' Observations):
# (The Physical Appearance of the Patient After the Stated 9 Weeks of TML Therapy.)
# [5] = test system: child diagnosed with Late Infantile Neuronal Ceroid Lipofuscinosis (LINCL); test: Blood work (standard clinical blood tests) before and after TML therapy; type: in vivo, human; design: Glutamine / Taurine / Carnitine, Total / Carnitine, Esthers / Alanine / Carbon Dioxide / BUN / Hgb / HCT / RDW / ABS Lymphocytes / Glycine: unit not given here
# Description: as §1, §2
# The child's bloodwork results are in table 1, below and the empirical nature of the child's improvement is evidenced by the follow up blood results. These blood tests were standard clinical tests carried out at Children's Hospital of Pittsburgh.
# L-carnitine biosynthesis [6] = settings: human infants & adults; increased amount of the intermediate in the bloodstream; cited from earlier work
# [7] = test system: child diagnosed with Late Infantile Neuronal Ceroid Lipofuscinosis (LINCL); test: Physical condition of the patient after 9 weeks of TML therapy (parents' and physicians' observations); type: in vivo, human; settings: TML 5 mg-30 mg per day after Jan. 29, 2004, through January 2005
# [8] = exogenous carnitine, dogs with Juvenile Neuronal Ceroid Lipofuscinosis
# [9] = Jan. 29, 2004, after TML, baseline high
# [10] = Jan. 29, 2004, after TML, baseline normal
smiles,measurement,setting,value
"C[N+](C)(C)C[C@H](O)CC(=O)[O-] [L-carnitine, L-b-hydroxy-g-n-trimethylaminobutyric acid]",Metabolic changes or marked outward observations of their condition,[1],without significant metabolic changes or marked outward observations of their condition
same,Need for endogenous production of L-carnitine,[2]; exogenous L-Carnitine to dogs with Batten Disease,not ameliorated
same,Function of the dogs,[2]; [8],more functional
same,Life span versus untreated dogs (lived longer),[2]; [8],10%
"C[N+](C)(C)CCCCC(N)C(=O)[O-] [TML, N-6-trimethyl-L-lysine]",Increase of the production of L-carnitine,L-carnitine biosynthesis [3],100 fold
same,Eye movement and pupillary response,[4]; after 9 weeks of TML therapy,more eye movement and even the emergence of “purposeful” eye movement and a faster pupillary response
same,Hypertonicity of legs,[4]; after 9 weeks of TML therapy,still “hypertonic”
same,Swallowing,[4]; after 9 weeks of TML therapy,"very much improved, almost normal"
same,"Hypertonicity of arms, hands and fingers","[4]; after 9 weeks of TML therapy, also observed by a physiatrist and neurologist",notable reduction
same,Cyanosis symptoms in the hands and feet,"[4]; after 9 weeks of TML therapy, before: chronically cyanotic",virtually no cyanosis
same,Bowel movements,"[4]; after 9 weeks of TML therapy, before: two or three days without bowel movement, enema needed",moving their bowels on their own one to three times a day
same,Insomnia / sleeping through the night,"[4]; after approximately the first two weeks of TML, before: sleep interrupted 1 to 3 times per night",The insomnia was gone
same,Hyperammonemic condition (blue hands and feet),[4]; after the administration of TML,amelioration of the hyperammonemic condition
same,"Metabolic and outward, observable changes to their condition",[4]; exogenous TML to the LINCL child,"yielded significant metabolic and outward, observable changes to their condition"
same,Full body jerk (Myoclonus) elicited by touch,"[4]; neurologist's office visit Jan. 30, 2004",no longer elicited a full body jerk
same,Myoclonic seizures,"[4]; neurologist's office visit Jan. 30, 2004, clonazepam continued",markedly reduced in severity and in number
same,Hgb,"[5]; Jan. 29, 2004, after 9 weeks of TML 5-10 mg/day in food, overnight fast, baseline Nov. 19, 2003: 14.4 (high)",14
same,BUN,"[5]; Jan. 29, 2004, after 9 weeks of TML 5-10 mg/day, baseline 2 (low), 6 is norm",5
same,ABS Lymphocytes,"[5]; Jan. 29, 2004, after 9 weeks of TML 5-10 mg/day, baseline 2.2 (low)",2.5
same,"Carnitine, Esthers","[5]; Jan. 29, 2004, after 9 weeks of TML 5-10 mg/day, baseline 7 (normal)",10
same,RDW,"[5]; Jan. 29, 2004, after 9 weeks of TML 5-10 mg/day, baseline 11.5",12.3
same,Taurine,"[5]; Jan. 29, 2004, after 9 weeks of TML 5-10 mg/day, baseline 24 (high)",19
same,Carbon Dioxide,"[5]; Jan. 29, 2004, after 9 weeks of TML 5-10 mg/day, baseline 32 (high)",22
same,"Carnitine, Total","[5]; Jan. 29, 2004, after 9 weeks of TML 5-10 mg/day, baseline 40 (normal)",43
same,HCT,"[5]; Jan. 29, 2004, after 9 weeks of TML 5-10 mg/day, baseline 42 (high)",40.3
same,Glycine,"[5]; Jan. 29, 2004, after 9 weeks of TML 5-10 mg/day, baseline 50 (high)",25
same,AST,"[5]; Jan. 29, 2004, after 9 weeks of TML 5-10 mg/day, baseline 60 (high), 40 is norm",50
same,Alanine,"[5]; Jan. 29, 2004, after 9 weeks of TML 5-10 mg/day, baseline 87 (high)",47
same,Glutamine,"[5]; Jan. 29, 2004, after 9 weeks of TML 5-10 mg/day, baseline 99 (high)",70
same,Platelets,"[5]; Jan. 29, 2004, after 9 weeks of TML 5-10 mg/day, baseline 586 (high), 369 norm",461
same,"Alanine, Clinical Range",[5]; [9],normal
same,"Carbon Dioxide, Clinical Range",[5]; [9],normal
same,"Glutamine, Clinical Range",[5]; [9],normal
same,"Glycine, Clinical Range",[5]; [9],normal
same,"HCT, Clinical Range",[5]; [9],normal
same,"Hgb, Clinical Range",[5]; [9],normal
same,"RDW, Clinical Range",[5]; [9],normal
same,"Taurine, Clinical Range",[5]; [9],normal
same,"AST, Clinical Range","[5]; Jan. 29, 2004, after TML, baseline high, 40 is norm",high
same,"Platelets, Clinical Range","[5]; Jan. 29, 2004, after TML, baseline high, 369 norm",high
same,"ABS Lymphocytes, Clinical Range","[5]; Jan. 29, 2004, after TML, baseline low",normal
same,"BUN, Clinical Range","[5]; Jan. 29, 2004, after TML, baseline low, 6 is norm",(low)
same,"Carnitine, Esthers, Clinical Range",[5]; [10],normal
same,"Carnitine, Total, Clinical Range",[5]; [10],normal
same,Elevation of serum amino acids (examining physician's comment),"[5]; Jan. 29, 2004, after TML, baseline: alanine elevated, glutamine increased",No significant elevation of serum Amino Acids
same,Increase of the production of L-carnitine,L-carnitine biosynthesis [6],3 fold
same,Condition on continued TML,[7],remained stable
"C[N+](C)(C)CCCC(=O)[O-] [g-butyrobetaine, 4-N-trimethylaminobutyrate, reference compound]",Increase of the production of L-carnitine,L-carnitine biosynthesis [3],100 fold
same,Increase of the production of L-carnitine,L-carnitine biosynthesis [6],3 fold

# From US7932287B2, “Therapeutic compositions and uses” (ChemGenes Corporation, priority 2004, dated 2011)
